# Data from patent publication EP4647071A1, “MITOCHONDRIAL COMPLEX I MODULATOR FOR USE IN THE TREATMENT OF ARTHRITIS” (Istesso Therapeutics Limited, priority 2024, dated 2025).
# Marks after values point to notes of the source that are not given here.
# What was measured:
# C-reactive protein (CRP) = assay: C-reactive protein inflammatory biomarker, clinical study; assay type: in vivo, human; conditions: 12 weeks
# rheumatoid factor = assay: Rheumatoid factor inflammatory biomarker, clinical study; assay type: in vivo, human; conditions: 12 weeks
# Excerpt: These structural changes are accompanied by a reduction in the acute phase reactant, C-reactive protein (CRP) and other inflammatory markers such as rheumatoid factor (Table 4). Table 3. Effect of MCIM compounds on damage indicators. * indicates statistical significance, p<0.05. a p = 0.1
compound,measurement,setting,value
C[C@]1(O)CC[C@H](NS(=O)(=O)c2ccc(-c3ccc(Cl)cc3C#N)cc2)CC1 [HMC-C-01-A],"CRP- mean, Change from baseline",C-reactive protein (CRP); 5 mg once daily,0.88 (18.4)
same,"CRP- median, Change from baseline",C-reactive protein (CRP); 5 mg once daily,-0.20
same,"CRP- mean, Change from baseline",C-reactive protein (CRP); 20 mg once daily,-4.13 (20.6)
same,"CRP- median, Change from baseline",C-reactive protein (CRP); 20 mg once daily,-0.10
same,"CRP- mean, Change from baseline","C-reactive protein (CRP); 40 mg once daily, p<0.05",-5.73 (27.7) *
same,"CRP- median, Change from baseline","C-reactive protein (CRP); 40 mg once daily, p<0.05",-2.50 *
same,"Rheumatoid factor, mean, Change from baseline",rheumatoid factor; 5 mg once daily,6.8 (80.9)
same,"Rheumatoid factor, mean, Change from baseline",rheumatoid factor; 20 mg once daily,-5.0 (60.4)
same,"Rheumatoid factor, mean, Change from baseline",rheumatoid factor; 40 mg once daily,-11.3 (88.0)
